According to patent US6043283A, “Tyramine compounds and their neuronal effects” (priority 1997, dated 2000):
Entries after “also recorded” stand apart in the source; their conditions may differ.

Columns and labels:
NTox = assay: protection of neurons against isolated NTox applied directly; format: cell-based
quinolinic acid (QUIN) = assay: protection of neurons against quinolinic acid; format: cell-based; settings: QUIN (100 μM in FIG. 13)
Excerpt: (§1) FIG. 32 is a graph showing the specificity of tyramine compounds to NTox. […]

AMAA = assay: protection of neurons against AMAA; format: cell-based; settings: FIG. 32
Excerpt: as §1

NMDA receptor = assay: whole cell current elicited by NMDA in Xenopus oocytes injected with NMDA R1 and R2 subunit cRNAs; format: cell-based; settings: FIG. 34
Excerpt: FIG. 34 is a graph shorting the % maximal current peak elicited by NMDA, octopamine and tyramine compounds in the presence of a given NMDA concentration. […].
The precise mechanism of NTox that leads to the destruction of neurons is only partially characterized. Based upon extensive testing with receptor antagonists, it has been discovered that two classes of neurotransmitter receptors are involved--the n-methyl D-aspartate (NMDA) class of […] receptors and the Muscarinic (M receptors) class of cholinergic receptors. […] […]. Further study to determine if tyramine compounds act upon the NMDA receptor itself involved expression of the NMDA receptor complex in Xenopus oocytes and measurement of ionic fluxes across the oocyte membrane that are elicited by NMDA. […] […]. […] Thus, tyramine compounds appear to have several actions, one of which is upon the NMDA receptor.

[1] = tested on: HEK cells expressing NMDA1b/2A; assay: NTox killing of HEK cells expressing NMDA receptors, trypan blue; format: cell-based, human; settings: 1 nM NTox, 24 hours
Excerpt: Photomicrograph of trypan blue(+) control HEK cells exposed to NTox. Few blue, dead cells are noted.

[2] = tested on: Aβ1-42-stimulated microglia; format: cell-based, rat
In short: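 E18 rat hippocampal cultures, microglia depleted with saporin–ac-LDL (10 μg/ml, 12 h) on day 14, then given test substances at 10μM with or without exogenous microglia (100,000 cells) for 72 h. Neurons immunostained (NF plus MAP-2) and nuclei counted by fluorescence microscopy; survival expressed as % of parallel untreated controls.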

[3] = tested on: human microglia stimulated with S5; format: cell-based;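 further: drugs applied at 10 µM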
rat microglia = assay: binding of Aβ-coupled microspheres to microglia; settings: 4 hours at 37° C. (72 h in FIG. 23)
microglia = assay: inhibition of SpheresAβ1-42 binding to microglia; design: species or system rat; settings: 10 μmoles/l, 4 hours, 37° C.
[4] = tested on: plaque-stimulated microglia; assay: blocking of plaque-induced microglial neurotoxicity; format: cell-based, rat; settings: FIG. 16C
macrophages = assay: competition with microspheres coupled to Aβ1-42, macrophages; format: binding; settings: 4 hours at 37° C.
kidney cells = assay: competition with microspheres coupled to Aβ1-42, kidney cells; format: binding; settings: 4 hours at 37° C.
astroglia = format: cell-based, rat; settings: 100 μmoles/l
Excerpt: FIGS. 21A-D display toxic actions of synthetic Aβ peptides upon neurons. […]. There is, however, a generalized cytotoxic action by Aβ25-35 at>30 μmoles/l on both neurons (FIG. 21A) and astroglia (FIG. 21B). In the absence of microglia, none of the Aβ peptides (at 1 μmole/l) produce destruction of neurons. […] These observations point to the need to deplete neuron cultures of microglia when assessing mechanisms of Aβ toxicity. […]; FIG. 21E).
. Briefly, hippocampal cells obtained from embryonic stage 18 rat fetuses were dispersed mechanically in the presence of 0.125% trypsin and plated onto poly-L-lysine coated glass coverslips in 24 well plates at 250,000 cells per well (resulting in adhering cell densities of about 1250 cells per mm^2) in chemically-defined N2 culture media containing 5% fetal bovine serum. Gradual reduction of serum began on day 10 in vitro with daily 1:1 volume replacements with chemically-defined media, until a final concentration of 0.6% serum was achieved. […]
On day 14 of culture, immediately following saporin treatment, test substances were added to the hippocampal cultures. […] Immuno-labeled cells per field and nuclei per field were scored at 200X magnification using fluorescence microscopy. Data were expressed as % mean survival expressed in terms of parallel untreated control cultures after scoring at least 20 randomly selected fields for each of 3 coverslips.

hippocampal neurons = format: cell-based, rat; settings: 100 μmoles/l
[5] = format: physicochemical; settings: chemically defined culture media, 37° C.; Table 2
Excerpt: Solubility of peptides is described for chemicallydefined culture media a […]

| Compound | neuroprotective effects against NTox, concentration range (NTox) | inhibition of killing action of NTox applied to neurons (NTox; isolated NTox, FIGS. 13, 32) | protection against quinolinic acid (quinolinic acid (QUIN)) | protection against AMAA (AMAA) | effect on current elicited by NMDA (NMDA receptor) | blocking of NTox killing [1] | drug blockade of neuron killing, rat microglia [2] | drug blockade of neuron killing, human microglia [3] | binding of peptide-coupled microspheres to microglia (rat microglia) | inhibition of SpheresAβ1-42 binding by peptides (microglia) | blocking of Aβ1-42 induced microglial neurotoxicity by peptides ([2]; 10 μmoles/liter peptide, 1 μmole/liter Aβ1-42) | IC50 ([2]; read-out: ED50 (blocking of Aβ1-42 induced neurotoxicity), FIG. 16B) | blocking of plaque-induced microglial toxicity by peptides [4] | competition with Aβ1-42 microspheres, macrophages (macrophages) | competition with Aβ1-42 microspheres, kidney cells (kidney cells) | destruction of glia (astroglia) | destruction of neurons (hippocampal neurons) | Solubility [5] |
| --- | --- | --- | --- | --- | --- | --- | --- | --- | --- | --- | --- | --- | --- | --- | --- | --- | --- | --- |
| C[C@]12N[C@H](Cc3ccccc31)c1ccccc12 [MK-801] | ~100 nM | NTox can be blocked | prevented from killing neurons | prevented from killing neurons | could be blocked | could be blocked | prevented neuronal loss; also recorded: blocked neuron death | blocked neuron death |  |  |  |  |  |  |  |  |  |  |
| Aβ10-16: Aβ peptide residues 10-16 (YEVHHQK; Amyloid-beta protein 42; UniProt P05067 681-687, looked up, fragment) |  |  |  |  |  |  |  |  | readily bind; also recorded: able to bind to microglia | effectively prevented | blocked neurotoxin production | ~30 nM | blocked plaque-induced toxicity in vitro | competition occurs with the macrophages in a dose dependent manner | no changes in binding |  |  |  |
| Aβ25-35: Aβ peptide residues 25-35 (GSNKGAIIGLM; Amyloid-beta protein 42; UniProt P05067 696-706, looked up, fragment) |  |  |  |  |  |  |  |  | little cell binding |  |  |  |  |  |  | ~90% | ~90% | soluble |
